US11208397B2, “Small molecule antagonists of sumo related modification of CRMP2 and uses thereof” (Arizona Board of Regents on Behalf of the University of …, priority 2017, dated 2021)
Entries after “also recorded” stand apart in the source; their conditions may differ. Where two headings read alike, the source gives them in different places.

Tests used:
NaV1.7 channels = assay: Sodium currents of sensory neurons incubated with compound for indicated times (direct block test); assay type: cell-based; parameters: dose or concentration left out as unconfirmed; conditions: primary rat sensory neurons
Method: Primary rat sensory neurons were incubated for the indicated times with DMSO 0.1% or […] AZ194. Left: Bar graphs represent normalized peak sodium current density±s.e.m. from at least 14 cells per condition from 3 separate rats.*p<0.05, Kruskal-Wallis test. Middle: current voltage relationship of sodium currents from rat sensory neurons incubated for the indicated times with DMSO 0.1% or […] AZ194. Right: biophysical properties of inactivation were not altered by AZ194 at any of the time points versus control.
Primary rat sensory neurons were incubated for the indicated times with DMSO 0.1% or 5 mM AZ194.

hERG = hERG (Homo sapiens, UniProt Q12809); conditions: 20 μM, hEK293 cells; listed as ReN 194
hERG, sequence (Q12809 whole entry): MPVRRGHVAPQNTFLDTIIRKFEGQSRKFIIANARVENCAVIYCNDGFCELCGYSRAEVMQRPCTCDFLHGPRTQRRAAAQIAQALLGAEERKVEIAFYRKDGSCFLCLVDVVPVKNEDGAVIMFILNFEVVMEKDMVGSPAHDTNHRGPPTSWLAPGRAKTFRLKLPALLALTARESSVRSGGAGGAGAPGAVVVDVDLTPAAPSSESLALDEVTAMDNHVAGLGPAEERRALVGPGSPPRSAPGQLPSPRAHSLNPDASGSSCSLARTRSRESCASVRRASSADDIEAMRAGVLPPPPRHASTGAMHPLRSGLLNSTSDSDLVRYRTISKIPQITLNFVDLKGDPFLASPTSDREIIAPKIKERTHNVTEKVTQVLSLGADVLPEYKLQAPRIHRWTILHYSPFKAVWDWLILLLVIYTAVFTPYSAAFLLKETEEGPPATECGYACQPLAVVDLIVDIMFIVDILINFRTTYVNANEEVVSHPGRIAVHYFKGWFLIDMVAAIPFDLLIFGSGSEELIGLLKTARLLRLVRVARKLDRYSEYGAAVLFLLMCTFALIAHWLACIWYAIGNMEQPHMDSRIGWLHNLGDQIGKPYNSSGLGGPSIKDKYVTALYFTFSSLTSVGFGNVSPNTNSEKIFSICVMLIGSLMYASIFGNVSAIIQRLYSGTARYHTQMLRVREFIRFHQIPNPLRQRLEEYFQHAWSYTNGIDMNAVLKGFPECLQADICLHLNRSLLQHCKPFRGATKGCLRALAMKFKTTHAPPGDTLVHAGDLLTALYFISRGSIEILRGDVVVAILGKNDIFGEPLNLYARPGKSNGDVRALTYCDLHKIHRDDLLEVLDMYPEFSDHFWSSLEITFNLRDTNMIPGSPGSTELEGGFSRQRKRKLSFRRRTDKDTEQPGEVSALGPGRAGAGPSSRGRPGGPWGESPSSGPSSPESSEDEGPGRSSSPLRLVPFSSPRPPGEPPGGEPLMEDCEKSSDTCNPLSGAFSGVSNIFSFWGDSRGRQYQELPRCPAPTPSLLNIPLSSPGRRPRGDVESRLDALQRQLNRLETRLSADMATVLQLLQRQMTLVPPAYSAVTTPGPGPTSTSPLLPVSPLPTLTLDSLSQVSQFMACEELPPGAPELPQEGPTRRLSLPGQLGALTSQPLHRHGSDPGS

[1] = tested on: spared nerve injury (SNI) rats; assay: Spared nerve injury (SNI) model of neuropathic pain; assay type: in vivo, rat
Method: FIG. 4: AZ194 reduces spared nerve injury (SNI) induced nociceptive behaviors. Rats received spared nerve injury (SNI) on the left hind paw. […] Right panel: Area under the curve (AUC), using the trapezoid method, for PWT (summary for data shown in the time course on the left) are shown. *p<0.05, one-way analysis of variance with Dunnett's post hoc analysis. Error bars represent mean±s.e.m.
AZ194 was evaluated for efficacy in the spared nerve injury (SNI) model (see, e.g., Decosterd I, & Woolf C J (2000) Pain 87: 149-158) of neuropathic pain. […] Such experiments also determined the AUC to assess effects over the full experimental duration.
Under isoflurane anesthesia (5% induction, 2.5% maintenance in 2 L/min air), skin on the lateral surface of the left hind thigh was incised. The biceps femoris muscle was bluntly dissected to expose the three terminal branches of the sciatic nerve (see, e.g., Decosterd I, & Woolf C J (2000) Pain 87: 149-158). Briefly, the common peroneal and tibial branches were tightly ligated with 4-0 silk and axotomized 2.0 mm distal to the ligation. Sham animals underwent the same operation; however the nerves were exposed and not ligated. Closure of the incision was made in two layers. The muscle was sutured once with 5-0 absorbable suture and skin was auto-clipped. Animals were allowed to recover for 5-7 days before any testing.

other NaV1.x channels = assay: Whole-cell patch clamp, other NaV1.x channels; assay type: cell-based
CaV2.2 = molecular target: T1, CaV2.2 (Rattus norvegicus, UniProt Q02294); assay: Peak CaV2.2 currents in DRGs; assay type: cell-based; conditions: 20 μM
T1 construct: endogenous in cells; host or cells: DRG neurons
T1 sequence (Q02294 whole entry): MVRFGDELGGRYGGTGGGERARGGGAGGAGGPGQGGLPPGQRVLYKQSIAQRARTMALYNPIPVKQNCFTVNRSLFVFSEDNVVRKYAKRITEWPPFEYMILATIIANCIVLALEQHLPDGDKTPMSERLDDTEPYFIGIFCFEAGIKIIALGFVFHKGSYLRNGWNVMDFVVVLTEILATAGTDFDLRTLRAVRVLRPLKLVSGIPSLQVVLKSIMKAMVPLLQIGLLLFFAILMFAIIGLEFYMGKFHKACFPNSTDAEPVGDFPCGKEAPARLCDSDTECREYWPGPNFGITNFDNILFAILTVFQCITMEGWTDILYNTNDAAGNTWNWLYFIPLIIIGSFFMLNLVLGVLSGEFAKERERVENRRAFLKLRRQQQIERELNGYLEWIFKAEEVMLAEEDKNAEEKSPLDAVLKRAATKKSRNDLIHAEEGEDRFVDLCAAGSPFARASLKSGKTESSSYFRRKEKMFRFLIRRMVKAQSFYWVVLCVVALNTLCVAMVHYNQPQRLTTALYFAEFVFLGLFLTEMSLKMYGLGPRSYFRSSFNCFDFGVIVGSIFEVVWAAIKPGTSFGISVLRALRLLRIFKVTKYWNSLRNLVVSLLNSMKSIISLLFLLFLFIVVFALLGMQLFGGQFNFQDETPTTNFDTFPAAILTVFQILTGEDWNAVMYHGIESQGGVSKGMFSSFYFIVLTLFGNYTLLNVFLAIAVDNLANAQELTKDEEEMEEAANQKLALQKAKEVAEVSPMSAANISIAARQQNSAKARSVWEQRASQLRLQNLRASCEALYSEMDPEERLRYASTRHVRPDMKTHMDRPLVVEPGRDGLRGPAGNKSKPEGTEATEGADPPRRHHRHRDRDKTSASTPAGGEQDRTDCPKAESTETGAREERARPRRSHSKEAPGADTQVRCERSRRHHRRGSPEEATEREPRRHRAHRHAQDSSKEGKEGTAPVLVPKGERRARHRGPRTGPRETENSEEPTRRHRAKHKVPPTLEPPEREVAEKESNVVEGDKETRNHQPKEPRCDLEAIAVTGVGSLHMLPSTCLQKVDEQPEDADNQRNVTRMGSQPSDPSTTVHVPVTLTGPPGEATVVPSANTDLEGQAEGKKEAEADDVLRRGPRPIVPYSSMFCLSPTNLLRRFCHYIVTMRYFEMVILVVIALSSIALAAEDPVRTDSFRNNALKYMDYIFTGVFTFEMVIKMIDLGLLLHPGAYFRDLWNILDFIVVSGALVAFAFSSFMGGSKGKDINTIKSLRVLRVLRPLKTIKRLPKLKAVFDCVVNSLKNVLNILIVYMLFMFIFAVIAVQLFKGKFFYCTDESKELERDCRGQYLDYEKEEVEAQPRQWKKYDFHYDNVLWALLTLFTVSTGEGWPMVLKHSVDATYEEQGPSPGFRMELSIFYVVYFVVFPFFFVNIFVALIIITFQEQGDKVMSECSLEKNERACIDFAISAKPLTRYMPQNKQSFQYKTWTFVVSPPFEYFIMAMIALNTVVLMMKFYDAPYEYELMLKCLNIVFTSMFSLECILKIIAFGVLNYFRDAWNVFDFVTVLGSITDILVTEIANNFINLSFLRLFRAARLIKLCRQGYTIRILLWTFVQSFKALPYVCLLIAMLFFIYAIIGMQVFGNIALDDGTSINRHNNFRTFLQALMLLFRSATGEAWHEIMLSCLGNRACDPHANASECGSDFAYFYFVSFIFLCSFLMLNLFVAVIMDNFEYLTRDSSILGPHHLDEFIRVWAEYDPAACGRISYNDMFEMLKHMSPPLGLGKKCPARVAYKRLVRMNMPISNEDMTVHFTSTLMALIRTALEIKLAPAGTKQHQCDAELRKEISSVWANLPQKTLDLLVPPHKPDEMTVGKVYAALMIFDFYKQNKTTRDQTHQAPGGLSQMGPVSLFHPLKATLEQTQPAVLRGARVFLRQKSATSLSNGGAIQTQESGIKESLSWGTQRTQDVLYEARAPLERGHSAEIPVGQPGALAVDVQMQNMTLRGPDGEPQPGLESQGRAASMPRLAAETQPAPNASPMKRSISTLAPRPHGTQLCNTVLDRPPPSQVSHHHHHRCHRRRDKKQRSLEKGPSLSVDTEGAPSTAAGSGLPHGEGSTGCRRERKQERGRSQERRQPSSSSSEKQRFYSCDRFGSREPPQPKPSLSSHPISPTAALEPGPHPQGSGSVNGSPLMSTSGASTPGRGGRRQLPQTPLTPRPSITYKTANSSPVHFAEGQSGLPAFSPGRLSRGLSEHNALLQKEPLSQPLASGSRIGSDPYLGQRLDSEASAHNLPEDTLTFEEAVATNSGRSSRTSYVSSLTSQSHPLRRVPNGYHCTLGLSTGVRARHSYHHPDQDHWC
T1 sequence (P54287 whole entry partner): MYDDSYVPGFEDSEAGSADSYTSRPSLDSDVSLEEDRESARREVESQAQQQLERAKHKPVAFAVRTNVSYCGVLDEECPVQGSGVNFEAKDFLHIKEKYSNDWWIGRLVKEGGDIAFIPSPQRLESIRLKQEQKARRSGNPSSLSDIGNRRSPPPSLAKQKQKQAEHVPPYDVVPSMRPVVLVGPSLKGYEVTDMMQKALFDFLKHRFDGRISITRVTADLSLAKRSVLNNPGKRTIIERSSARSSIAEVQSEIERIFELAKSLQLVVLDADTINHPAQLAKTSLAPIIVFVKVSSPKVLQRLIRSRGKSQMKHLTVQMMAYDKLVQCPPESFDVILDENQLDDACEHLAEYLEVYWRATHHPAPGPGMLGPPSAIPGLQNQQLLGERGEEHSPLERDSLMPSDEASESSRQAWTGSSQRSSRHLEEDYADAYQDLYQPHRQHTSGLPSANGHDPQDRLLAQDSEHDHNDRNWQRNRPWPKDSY
T1 sequence (P54290 25-1091 partner): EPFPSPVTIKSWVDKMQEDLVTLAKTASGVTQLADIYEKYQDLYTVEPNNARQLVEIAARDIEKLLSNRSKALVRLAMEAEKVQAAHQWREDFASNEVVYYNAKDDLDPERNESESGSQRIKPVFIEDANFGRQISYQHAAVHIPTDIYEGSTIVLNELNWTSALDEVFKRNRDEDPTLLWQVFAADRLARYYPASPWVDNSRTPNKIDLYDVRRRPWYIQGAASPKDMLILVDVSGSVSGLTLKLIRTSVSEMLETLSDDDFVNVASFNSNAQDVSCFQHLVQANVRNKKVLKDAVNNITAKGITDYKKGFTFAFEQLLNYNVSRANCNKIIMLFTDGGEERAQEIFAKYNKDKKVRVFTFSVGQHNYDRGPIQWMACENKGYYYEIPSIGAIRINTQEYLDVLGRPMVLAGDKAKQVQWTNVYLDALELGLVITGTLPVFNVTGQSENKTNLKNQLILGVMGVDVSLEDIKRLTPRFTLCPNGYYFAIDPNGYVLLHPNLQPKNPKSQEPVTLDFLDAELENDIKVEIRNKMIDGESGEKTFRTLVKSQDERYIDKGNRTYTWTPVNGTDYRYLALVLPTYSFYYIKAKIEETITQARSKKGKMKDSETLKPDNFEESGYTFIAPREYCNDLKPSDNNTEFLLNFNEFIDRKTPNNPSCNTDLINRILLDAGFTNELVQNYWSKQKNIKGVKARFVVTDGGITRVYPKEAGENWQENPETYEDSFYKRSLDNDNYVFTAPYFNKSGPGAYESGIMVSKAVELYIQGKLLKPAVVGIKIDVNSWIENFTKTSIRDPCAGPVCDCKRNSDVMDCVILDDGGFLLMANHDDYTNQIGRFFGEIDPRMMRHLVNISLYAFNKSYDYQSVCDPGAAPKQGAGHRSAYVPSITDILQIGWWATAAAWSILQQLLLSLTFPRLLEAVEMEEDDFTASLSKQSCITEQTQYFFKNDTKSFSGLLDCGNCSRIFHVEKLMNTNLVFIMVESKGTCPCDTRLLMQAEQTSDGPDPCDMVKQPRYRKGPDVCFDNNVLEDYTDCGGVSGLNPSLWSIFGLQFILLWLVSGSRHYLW

CRMP2 = CRMP2 (Mus musculus, UniProt O08553); assay: 1D 1H STD NMR binding to CRMP2
Method: 1D ^1H STD NMR showing on-resonance spectrum for CRMP2 with probe AZ194. Asterisks correspond to protons. […] NMR was performed on an AVANCE III 400 Mhz specrometer equipped with a Bruker PABBO 400S1 probe and SampleJet carousel that can hold up to 96 NMR tubes. The on-resonance excitation was set at 0.81 ppm (to irradiate protein methyl groups) and off-resonance set to 30 ppm. A 15 ms spin-lock was used to suppress the protein signal, followed by the double PFG spin echo to remove residual water signal. Spectra processing and analysis were performed with Topspin3.1 and MestReNova 7.1.

NaV1.7 = assay type: cell-based, rat
TTX-S NaV1.7 currents = assay type: cell-based, human
Penk mRNA = assay: Penk (proenkephalin) mRNA expression in cultured DRG neurons; assay type: cell-based; conditions: exposure 6 hr, cultured rat DRG neurons
Ubc9 = Ubc9 (Homo sapiens, UniProt P63279); assay: 1D 1H STD NMR binding to Ubc9
NaV channels = assay: Frequency (use)-dependent block of sodium current in DRG neurons; assay type: cell-based; conditions: 5 μM, thirty test pulses at 10 Hz, listed as ReN 206
Method: Control DRG neurons were treated with 0.03% DMSO (squares). Thirty, identical test pulses were applied at 10 Hz. The difference in available current was calculated by dividing the peak current at any given pulse (pulseN) by the peak current in response to the initial pulse (pulsei). Data are from 5-6 cells per condition.
The ability to block Na^+ currents in an activity- or use-dependent manner is a useful property for drugs since it allows for preferential decreases in sodium channel availability during high—(i.e., hyperexcitable ‘pain’ neurons) but not low-frequency firing.

COc1cc(C(=O)N2CCC(c3nc4ccccc4n3Cc3cccc(F)c3)CC2)ccc1OCc1cccc(F)c1 [AZ194, (4-(1-(3-fluorobenzyl)-1H-benzo[d]imidazol-2-yl)piperidin-1-yl)(4-((3-fluorobenzyl)oxy)-3-methoxyphenyl)methanone]
biophysical properties of inactivation (NaV1.7 channels; any time point versus control): not altered | direct block of NaV1.7 channels (normalized peak sodium current density) (NaV1.7 channels; indicated incubation times): does not directly block | effect on hERG K+ currents (hERG): did not affect | paw withdrawal thresholds (PWTs) ([1]; intrathecal injection 0.5 μg/5 μl): significantly increased; also recorded: significantly reversed | area under the curve (AUC) for PWT ([1]; spinal administration, full experimental duration): reversal of mechanical allodynia | effect on other NaV1.x channels (other NaV1.x channels): not affected | effect on other NaV1.x channels (other NaV1.x channels; highest concentration of 20 μM): no inhibition | effect on peak CaV2.2 currents (CaV2.2): no inhibition | effect on peak CaV2.2 currents (CaV2.2; listed as ReN 194): did not affect | binding to CRMP2 (STD NMR) (CRMP2): binds | inhibition of NaV1.7 (concentration-response curve) (NaV1.7): nanomolar potency | reduction of TTX-S NaV1.7 currents (TTX-S NaV1.7 currents): ~66% | Penk mRNA (proenkephalin), normalized to L27 ribosomal RNA (Penk mRNA): upregulates; also recorded: increased | binding to Ubc9 (STD NMR) (Ubc9): No binding was observed

Fc1ccc(Oc2ccc(CN3CCC(c4nc5ccccc5[nH]4)CC3)cc2)cc1 [AZ206, 2-(1-(4-(4-fluorophenoxy)benzyl)piperidin-4-yl)-1H-benzo[d]imidazole]
frequency (use)-dependent decrease in current amplitude (NaV channels): use-dependent inhibitor; also recorded: decrease in current amplitude

COc1cc(C(=O)N2CCC(c3nc4ccccc4n3Cc3cccc(F)c3)CC2)ccc1OCc1cccc(F)c1 [drawing 20]
Penk mRNA (proenkephalin), normalized to L27 ribosomal RNA (Penk mRNA): upregulation
